The supplement of paper PMC5908809

Key:
[1] = tested on: NKL (IL-2 2.5 ng/mL); experiment: percent inhibition of viability; higher = more inhibition; settings: 72 h
[2] = tested on: KHYG-1 (IL-2 2.5 ng/mL); experiment: as above; settings: 72 h
[3] = tested on: normal primary NK cells, pool 1 (3 donors), resting (IL-2 0 ng/mL); experiment: as above; settings: 72 h
[4] = tested on: normal primary NK cells, pool 2 (3 donors) (IL-2 2.5 ng/mL); experiment: as above; settings: 72 h
[5] = tested on: NK-YS (IL-2 2.5 ng/mL); experiment: as above; settings: 72 h
[6] = tested on: normal primary NK cells, pool 3 (3 donors) (IL-2 2.5 ng/mL); experiment: as above; settings: 72 h
[7] = tested on: KAI3 (IL-2 2.5 ng/mL); experiment: as above; settings: 72 h
[8] = tested on: DERL-7 (IL-2 2.5 ng/mL); experiment: as above; settings: 72 h
[9] = tested on: normal primary NK cells, pool 1 (3 donors) (IL-2 2.5 ng/mL); experiment: as above; settings: 72 h
[10] = tested on: YT (IL-2 2.5 ng/mL); experiment: as above; settings: 72 h
[11] = tested on: SNK-6 (IL-2 2.5 ng/mL); experiment: as above; settings: 72 h
[12] = tested on: IMC-1 (IL-2 20 ng/mL); experiment: as above; settings: 72 h
[13] = tested on: NK-92 (IL-2 2.5 ng/mL); experiment: as above; settings: 72 h
[14] = tested on: NKL (IL-2 2.5 ng/mL); experiment: drug sensitivity score (DSS) (DSS units); higher = more sensitive; extreme values may be limits of the assay; settings: 72 h
[15] = tested on: KHYG-1 (IL-2 2.5 ng/mL); experiment: as above; settings: 72 h
[16] = tested on: normal primary NK cells, pool 1 (3 donors), resting (IL-2 0 ng/mL); experiment: as above; settings: 72 h
[17] = tested on: normal primary NK cells, pool 2 (3 donors) (IL-2 2.5 ng/mL); experiment: as above; settings: 72 h
[18] = tested on: NK-YS (IL-2 2.5 ng/mL); experiment: as above; settings: 72 h
[19] = tested on: normal primary NK cells, pool 3 (3 donors) (IL-2 2.5 ng/mL); experiment: as above; settings: 72 h
[20] = tested on: KAI3 (IL-2 2.5 ng/mL); experiment: as above; settings: 72 h
[21] = tested on: DERL-7 (IL-2 2.5 ng/mL); experiment: as above; settings: 72 h
[22] = tested on: normal primary NK cells, pool 1 (3 donors) (IL-2 2.5 ng/mL); experiment: as above; settings: 72 h
[23] = tested on: YT (IL-2 2.5 ng/mL); experiment: as above; settings: 72 h
[24] = tested on: SNK-6 (IL-2 2.5 ng/mL); experiment: as above; settings: 72 h
[25] = tested on: IMC-1 (IL-2 20 ng/mL); experiment: as above; settings: 72 h
[26] = tested on: NK-92 (IL-2 2.5 ng/mL); experiment: as above; settings: 72 h
[27] = tested on: normal NK cells expanded with K562-aAPC; experiment: as above; settings: 72 h; IL-2 2.5 ng/mL
Description: (§1)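 Drug sensitivity and resistance testing on K562-aAPC-expanded normal NK cells: 5 concentrations (10-fold steps over a 10,000-fold range), 72 h at 37 °C, viability by CellTiter-Glo normalised to DMSO and benzethonium chloride controls; DSS from the fitted curve.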

[28] = tested on: normal NK cells expanded with K562-aAPC; experiment: percent inhibition of viability; higher = more inhibition; settings: 72 h, IL-2 2.5 ng/mL
Description: as §1

C/C(=C\c1csc(C)n1)[C@@H]1C[C@@H]2O[C@]2(C)CCC[C@H](C)[C@H](O)[C@@H](C)C(=O)C(C)(C)[C@@H](O)CC(=O)O1 [Patupilone] (max concentration tested 1000 nM)
percent inhibition of viability [%]
Settings | 0.1 nM | 1 nM | 10 nM | 100 nM | 1000 nM
[1] | -9.24 | -10.5 | 34.6 | 93.9 | 90.3
[2] | -3.34 | -8.41 | 25.7 | 104 | 102
[3] | -18.5 | -28.5 | 6.09 | 7.49 | 15.2
[4] | 2.42 | -5.69 | 2.84 | 6.87 | 6.04
[5] | -3.81 | -3.75 | 28.9 | 71.3 | 69.9
[6] | -13 | -7.53 | 0.9 | 3.45 | 6.6
[7] | -13.1 | -4.34 | 44.2 | 60.6 | 50.5
[8] | -4.98 | 5.91 | 98.8 | 99.6 | 99.2
[9] | -9.75 | -4.17 | 10.3 | 5.4 | 6.51
[10] | -3.08 | -3.77 | 59.4 | 97.9 | 96.7
[11] | 5.42 | 5.23 | 75.5 | 72.6 | 69.5
[12] | -0.59 | 0.29 | 97 | 99.9 | 99.2
[13] | -21.3 | -3.29 | 72.4 | 99.8 | 97.7
[28] | -5.25 | -3.64 | 53.5 | 57.1 | 55.8

Settings | drug sensitivity score
[14] | 21.7
[15] | 21.9
[16] | 0.55
[17] | 0
[18] | 17
[19] | 0
[20] | 16.4
[21] | 31.1
[22] | 0.14
[23] | 24.7
[24] | 24.3
[25] | 30.1
[26] | 26.2
[27] | 17.1

COc1cc(N2CCN(C)CC2)ccc1Nc1nccc(-c2cn(C)c3cnccc23)n1 [AZ191] (max concentration tested 10000 nM)
percent inhibition of viability [%]
Settings | 1 nM | 10 nM | 100 nM | 1000 nM | 10000 nM
[1] | 0.2 | -6.29 | 1.16 | 9.93 | 100
[2] | 0.79 | 2.96 | 3.04 | 14.1 | 84
[3] | 1.62 | -14.6 | -3.74 | -36.1 | 89
[4] | -12.1 | -5.94 | -2.76 | -11.2 | 95.5
[5] | -4.12 | 2.61 | 2.04 | 8.64 | 101
[6] | -10.6 | -7.12 | 4.76 | -17.3 | 97.8
[7] | -2.82 | -0.25 | 1.51 | 7.76 | 96.3
[8] | 7.49 | 2.85 | 4.6 | 22.2 | 100
[9] | 7.5 | -5.03 | -5.7 | -4.75 | 96.8
[10] | 2.03 | 4.34 | 2.77 | 1.55 | 41.9
[11] | -18.5 | -11.7 | -15.3 | -7.38 | 92
[12] | -5.47 | 3.31 | -0.27 | 2.63 | 101
[13] | 2.97 | 2.04 | -3.34 | -19.2 | 93.8
[28] | -2.34 | 0.52 | -4.12 | 6.6 | 100

Settings | drug sensitivity score
[14] | 7.17
[15] | 7.01
[16] | 3.59
[17] | 4.59
[18] | 6.95
[19] | 4.48
[20] | 6.56
[21] | 9.03
[22] | 5.01
[23] | 2.31
[24] | 4.58
[25] | 6.03
[26] | 4.21
[27] | 6.54
